Paper PMC7173930, “EAT-18 is an essential auxiliary protein interacting with the non-alpha nAChR subunit EAT-2 to form a functional receptor” (PLoS Pathogens, 2020)
Values joined by “and” are separate entries in the source; they are usually repeats but may differ in a detail not shown here. Identical values can stand only once. Like-named read-outs stand apart in the source and are kept apart here.

Assays:
[1] = tested on: nAChRs expressed in the pharynx of A. suum; experiment: tissue or blood; type: cell-based; settings: for Emax: Ascaris suum, read-out: % change in membrane conductance (δG) normalized to the ACh δG; for maximal response (δG) of ACh in the presence of antagonist / normalized response (δG) to muscarinic agonists, control ACh = 100%: mean±SE; for normalized response (δG) to muscarinic agonists, control ACh = 100%: 100 μM, 10 s application, n=4; for mode of antagonism of the pharyngeal ACh response: ACh pEC50 unchanged, maximal response inhibited; for % change in membrane conductance (δG) normalized to the ACh δG: normalized to 100 μM ACh (10 s), mean±SEM, n≥4
Protocol: A. suum pharyngeal dissections and electrophysiology recordings were adapted from Martin [49]. Briefly, pharynx was dissected out from the head region of the worm and mounted on Sylgard (Sigma-Aldrich Inc., USA)—lined in a double jacketed bath chamber maintained at 28°C. The muscle layer surrounding the anterior 3rd of the pharynx was preserved for anchoring. The intestine attached to the posterior end of the pharynx was used for stretching and pinning down. The preparation was continuously perfused with calcium-free Ascaris Perienteric Fluid-Ringer (calcium-free APF-Ringer) composition (mM): NaCl 23, Na-acetate 110, KCl 24, MgCl2 11, glucose 11, and HEPES 5; NaOH or acetic acid was added to adjust the pH to 7.6. […] The rate of localized perfusion was 3.5–4 ml min^−1 through a 20-gauge needle, which was placed directly above the recording region of the pharynx. […] We used 3 M potassium acetate in our micropipettes to get the final resistances of 4–7 MΩ for the voltage sensing and 0.5–1 MΩ for the current injecting electrode for current-clamp recordings. The current-injecting electrode injected hyperpolarizing step currents of −1000 nA for 500 ms at 0.3 Hz.
We constructed the sigmoidal concentration-response plots by fitting the data by nonlinear regression to determine the pEC50 and the maximal response (Rmax). Extra sum of squares F-test was used to test statistical differences between pEC50, slope, and maximal response. The significance levels were set to P<0.05.
In applications containing arecoline and pilocarpine, we used mecamylamine, a nAChR antagonist (30µM) to inhibit nAChRs and to allow only mAChR activation.

[2] = molecular target: T1, Cel-EAT-2 and Cel-EAT-18c nAChR (Caenorhabditis elegans, UniProt Q9U298); experiment: Two-electrode voltage-clamp of Cel-EAT-2 + Cel-EAT-18c nAChR expressed in Xenopus oocytes; type: cell-based; settings: for Emax at 100 µM: read-out: current response normalized to the control 100 μM ACh current (Imax); for Emax at 100 µM / current response normalized to the control 100 μM ACh current (Imax): agonist 100 μM, n≥6; for Emax at 100 µM / current response normalized to the control 100 μM ACh current (Imax) / Hill slope (nH): mean±SEM; for Hill slope (nH): agonist concentration-response; for EC50: read-out: pEC50 (converted)
T1 sequence (Q9U298 22-474): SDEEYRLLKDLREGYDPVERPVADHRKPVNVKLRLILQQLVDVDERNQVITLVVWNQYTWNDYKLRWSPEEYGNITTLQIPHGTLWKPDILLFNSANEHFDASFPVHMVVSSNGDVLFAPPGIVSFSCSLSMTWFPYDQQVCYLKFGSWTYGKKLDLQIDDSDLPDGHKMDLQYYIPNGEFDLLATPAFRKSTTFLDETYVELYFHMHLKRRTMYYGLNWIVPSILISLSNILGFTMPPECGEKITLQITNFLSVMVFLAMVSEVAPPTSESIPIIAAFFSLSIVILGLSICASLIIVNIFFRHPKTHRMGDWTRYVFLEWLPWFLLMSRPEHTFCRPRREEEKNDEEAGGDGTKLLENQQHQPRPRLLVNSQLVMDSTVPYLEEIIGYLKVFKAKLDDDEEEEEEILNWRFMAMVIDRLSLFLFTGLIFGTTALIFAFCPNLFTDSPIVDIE

Asu-EAT-2 nAChR = Asu-EAT-2 nAChR (Ascaris suum, UniProt F1L9Y6); experiment: cell-based; type: cell-based, A. suum; settings: for Emax: read-out: current response normalized to the control 100 μM ACh current
[3] = tested on: A. suum muscarinic receptor; set-up: method as in earlier work; settings: all used at 100 µM; ref 1 Kimber M.J. et al. Int J Parasitol 39: 1215-1222 (2009); cited from earlier work
[4] = in the presence of mecamylamine 30 μM

Asu-EAT-2 nAChR, sequence (F1L9Y6 entry or part of it): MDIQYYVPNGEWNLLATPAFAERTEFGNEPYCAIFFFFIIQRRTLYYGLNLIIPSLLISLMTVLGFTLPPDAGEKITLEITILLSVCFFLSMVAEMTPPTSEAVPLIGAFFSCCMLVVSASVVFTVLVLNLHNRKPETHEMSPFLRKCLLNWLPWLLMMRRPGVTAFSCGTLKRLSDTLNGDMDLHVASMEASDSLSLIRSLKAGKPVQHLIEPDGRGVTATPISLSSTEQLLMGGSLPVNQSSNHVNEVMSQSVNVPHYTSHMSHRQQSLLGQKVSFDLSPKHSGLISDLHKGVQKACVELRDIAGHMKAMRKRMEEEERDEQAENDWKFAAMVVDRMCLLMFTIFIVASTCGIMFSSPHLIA
Asu-EAT-2 nAChR, sequence (F1L1D9 entry or part of it, further chain): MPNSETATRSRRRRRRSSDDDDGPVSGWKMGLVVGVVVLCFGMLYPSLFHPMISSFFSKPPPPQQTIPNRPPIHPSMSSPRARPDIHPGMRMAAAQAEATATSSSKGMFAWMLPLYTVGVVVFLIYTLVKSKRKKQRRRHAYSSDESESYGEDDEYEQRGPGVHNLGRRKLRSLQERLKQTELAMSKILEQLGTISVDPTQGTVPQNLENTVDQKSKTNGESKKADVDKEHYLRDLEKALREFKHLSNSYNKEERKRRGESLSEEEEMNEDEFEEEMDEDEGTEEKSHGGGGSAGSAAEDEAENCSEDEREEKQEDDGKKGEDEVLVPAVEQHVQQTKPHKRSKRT

CNC1(C)C2CCC(C2)C1(C)C (stereo not drawn) [mecamylamine]
% inhibition of 100 μM ACh membrane conductance (δG) [1]: 92% and 92.2±1.9%

c1ccc([C@H]2CN3CCSC3=N2)cc1 [levamisole]
Emax at 100 µM [2]: 0% | Emax [1]: 1.8 ± 0.61% | current response normalized to the control 100 μM ACh current (Asu-EAT-2 nAChR): failed to activate the receptor | Emax (Asu-EAT-2 nAChR): 0%

α-bungarotoxin [α-BTX]
Imax of ACh concentration-response in the presence of antagonist [2]: 86.0±2.4% | effect on sensitivity and efficacy of the receptor for ACh [2]: not altered

CO[C@H]1CC=C2CCN3CCC4=C(CC(=O)OC4)[C@]23C1 [DHβE, Dihydro-β-erythroidine]
effect on sensitivity and efficacy of the receptor for ACh [2]: not altered | Imax of ACh concentration-response in the presence of antagonist ([2]; antagonist 30 μM): 91.1±4.1% | % inhibition of 100 μM ACh membrane conductance (δG) [1]: 17.9±5.0% | maximal response (δG) of ACh in the presence of antagonist ([1]; DHβE 30 μM): 89.7±3.0 μS | mean % inhibition of ACh (100 μM) mediated currents (Asu-EAT-2 nAChR): 66±8.4%

CC[C@@H]1C(=O)OC[C@@H]1Cc1cncn1C [pilocarpine]
normalized response (δG) to muscarinic agonists, control ACh = 100% [1, 4]: 0.7±0.7% | response relative to ACh (rank order series of muscarinic agonists) [3]: 14%

CCN1C[C@]2(COC(=O)c3ccccc3N3C(=O)C[C@H](C)C3=O)CC[C@H](OC)[C@@]34[C@@H]5C[C@H]6[C@H](OC)[C@@H]5[C@](O)(C[C@@H]6OC)[C@@](O)([C@@H](OC)[C@H]23)[C@@H]14 [methyllycaconitine]
% inhibition of 100 μM ACh membrane conductance (δG) [1]: 62.6±3.7% | mode of antagonism of the pharyngeal ACh response ([1]; antagonist 10 μM): non-competitive antagonists | maximal response (δG) of ACh in the presence of antagonist ([1]; antagonist 10 μM): 57.0±4.6 μS

Clc1ccc(C2CC3CCC2N3)cn1 (stereo not drawn) [epibatidine]
Emax at 100 µM [2]: 25 ± 1.5% | % change in membrane conductance (δG) normalized to the ACh δG [1]: 31.0±3.0% | Emax (Asu-EAT-2 nAChR; mean±SEM, n≥5): 77 ± 4.2%

O=C1CCCN1CC#CCN1CCCC1 [oxotremorine]
normalized response (δG) to muscarinic agonists, control ACh = 100% [1]: 1.8±0.8% | response relative to ACh (rank order series of muscarinic agonists) [3]: 61%

C/C(=N/c1ccc(/N=C/c2ccc(/C=N/c3ccc(/N=C(/C)N(C)C)cc3)cc2)cc1)N(C)C [tribendimidine]
% change in membrane conductance (δG) normalized to the ACh δG [1]: 0.0±0.0%

Cc1ccc(C[N+](C)(C)C)o1 [MFI, 5-methylfurmethiodide]
normalized response (δG) to muscarinic agonists, control ACh = 100% [1]: 4.0±0.6%

CC(=O)OC(C)C[N+](C)(C)C (stereo not drawn) [methacholine]
current response normalized to the control 100 μM ACh current (Imax) [2]: 73 ± 5.3% | Hill slope (nH) [2]: 3.5±1.3 | Emax at 100 µM [2]: 73 ± 5.3% | EC50 [2]: 79.4 µM

CN1C(=O)[C@]23C[C@H]4C(C)(C)[C@@]5(C[C@@]41CN2CC[C@@]3(C)O)C(=O)Nc1c5ccc2c1OC=CC(C)(C)O2 [paraherquamide]
Imax of ACh concentration-response in the presence of antagonist ([2]; antagonist 30 μM): 40.2±2.7% | % inhibition of 100 μM ACh membrane conductance (δG) [1]: 37.2±8.7% | mode of antagonism of the pharyngeal ACh response ([1]; antagonist 10 μM): non-competitive antagonists | maximal response (δG) of ACh in the presence of antagonist ([1]; antagonist 10 μM): 87.7±5.7 μS

CN1CCCN=C1/C=C/c1cccc(O)c1 [oxantel]
current response normalized to the control 100 μM ACh current (Imax) [2]: 11 ± 1.3% | Emax at 100 µM [2]: 11 ± 1.3% | Emax [1]: 0% | Emax (Asu-EAT-2 nAChR; mean±SEM, n≥5): 3 ± 1.3%

COC(=O)C1=CCCN(C)C1 [arecoline]
normalized response (δG) to muscarinic agonists, control ACh = 100% [1, 4]: 2.6±2.0% | response relative to ACh (rank order series of muscarinic agonists) [3]: 76%

COc1cc2c3cc1Oc1cc(ccc1O)C[C@@H]1c4c(cc(OC)c(O)c4Oc4ccc(cc4)C[C@@H]3N(C)CC2)CC[N+]1(C)C [d-TC, d-tubocurarine]
inhibition at 30 µM ([2]; read-out: reduction (inhibition) in the mean ACh response, 30 μM d-tubocurarine): ~98% | % inhibition of 100 μM ACh membrane conductance (δG) [1]: 94.6±0.2% | mode of antagonism of the pharyngeal ACh response ([1]; antagonist 10 μM): non-competitive antagonists | maximal response (δG) of ACh in the presence of antagonist ([1]; antagonist 10 μM): 23.0±3.0 μS

C[N+](C)(C)CCOC(N)=O [carbachol]
Hill slope (nH) [2]: 2.1±0.3 | Emax at 100 µM [2]: 37 ± 3.4% | EC50 [2]: 398 µM | response relative to ACh (rank order series of muscarinic agonists) [3]: 80%

C[N+](C)(C)CCO [choline]
Emax [1]: 0% | Emax (Asu-EAT-2 nAChR): 0%
